The values below come from article PMC11084427 (2024).

The subject of assay [1] is poly A-poly U (pApU) (RNA, polymer) A/U. Nature of the assay: UV melting, 260 nm. The settings on record: Na+ (sodium cacodylate, I = 0.05 M); pH 7.0; compound/polynucleotide r = 0.3; per base.
Assay [2] deals with poly dA-poly dT (pdApdT) (DNA, polymer) A/T. The assay is described as follows: UV melting, 260 nm. The settings on record: Na+ (sodium cacodylate, I = 0.05 M), pH 7.0, per base.
The test system of assay [3] is poly(dAdT)2 (DNA, polymer) AT. Nature of the assay: UV melting, 260 nm. The note with it: Na+ (sodium cacodylate, I = 0.05 M); pH 7.0; compound/polynucleotide r = 0.3; per base.
For assay [4], the system named is poly(dGdC)2 (DNA, polymer) GC. The assay is described as follows: fluorescence titration, Scatchard. The note with it: Na+ (sodium cacodylate, I = 0.05 M); pH 7.0, 25 °C; per phosphate; per base.
For assay [5], the system named is poly A-poly U (pApU) (RNA, polymer) A/U. Nature of the assay: fluorescence titration, Scatchard. The settings on record: Na+ (sodium cacodylate, I = 0.05 M), per phosphate, per base.
Assay [6] concerns poly(dAdT)2 (DNA, polymer) AT. The assay is described as follows: fluorescence titration, Scatchard. The settings on record: Na+ (sodium cacodylate, I = 0.05 M); pH 7.0, 25 °C; per phosphate; per base.
For assay [7], the system named is poly dA-poly dT (pdApdT) (DNA, polymer) A/T. Nature of the assay: fluorescence titration, Scatchard. The note with it: Na+ (sodium cacodylate, I = 0.05 M); pH 7.0, 25 °C; per phosphate; per base.
The test system of assay [8] is dAdTdT (ATT) triplex (DNA, polymer) A/T/T. Nature of the assay: fluorescence titration, Scatchard. The note with it: Na+ (sodium cacodylate, I = 0.05 M); pH 7.0, 25 °C; per phosphate; per base.
Assay [9] shares this test system. Nature of the assay: UV melting, 260 nm. The note with it: Na+ (sodium cacodylate with NaCl, I = 0.1 M); pH 7.0, 1 mM EDTA; 7.5 μM compound, r = 0.3; transition Tm3→1 (third strand); per base.
Where [10] appears, read: compound/polynucleotide r = 0.3.

Each structure is given as a SMILES string.

With `COC(=O)[C@H](Cc1ccc2c(c1)c(C)nc1ccccc12)NC(=O)CNC(=O)CNC(=O)c1ccc(C(=O)NC(=N)N)[nH]1`, the ΔTm (commonly the change in melting temperature against a reference sample) in [1] came out at 0 ± 0.5 °C; in assay [2] (setting [10]), 0.7 ± 0.5 °C; in assay [3], 1.2 ± 0.5 °C.

With `COC(=O)[C@H](Cc1ccc2c(c1)c(C)nc1ccccc12)NC(=O)CNC(=O)[C@H](CCCCN)NC(=O)c1ccc(C(=O)NC(=N)N)[nH]1`, the “log Ka” value in assay [4] was determined as 6.1; in [5] (pH 5.0, 25 °C, not determinable at pH 7.0), 5.5; in assay [6] it was 6.7. Besides, the ΔTm in [1] turned out to be 0 ± 0.5 °C; in [2] (setting [10]), 1.5 ± 0.5 °C; in assay [3], 2.6 ± 0.5 °C.

As to `COC(=O)[C@H](Cc1ccc2c(c1)c(C)nc1ccccc12)NC(=O)[C@H](CCCCN)NC(=O)CNC(=O)c1ccc(C(=O)NC(=N)N)[nH]1`, the “log Ka” value in [4] came out at 5.8; in assay [5] (pH 7.0, 25 °C) it was 7.1; in assay [7] it was 6.6; in assay [6], 6.7; in [8], 7.4. The ΔTm worked out at 2.5 ± 0.5 °C in assay [1]; 2.1 ± 0.5 °C in assay [2] (r = 0.3, biphasic, second transition); 1.0 ± 0.5 °C in assay [3]; 1.1 ± 0.5 °C in assay [9].
